Laboratory results as given in patent US20190224261A1, “LICORICE EXTRACT COMPOSITIONS AND METHOD OF USE” (Adbiotech, Co. Ltd, priority 2018, published 2019).

Tests used:
[1] = DPPH radical scavenging activity
Description: The 2,2-diphenyl-1-picrylhydrazyl (DPPH) radical scavenging activity was evaluated as described (Gupta D et al., BMC Complement Altem Med, 2011; 11:13. doi: 10.1186/1472-6882-11-13) with modifications. In this assay, 0.2 mL of sample at different concentrations (1-1000 μg/mL) was added to 1.8 mL of DPPH solution (0.11 mM) in 80% ethanol. The mixture was then incubated for 30 minutes and at room temperature in the dark. The absorbance at 517 nm was then measured with ascorbic acid and butylhydroxytoluene (BHT) as reference antioxidants. A 0.2 mL of solvent extract dilution added to 1.8 mL of DPPH solution (0.11 mM) in 80% ethanol serve as the control. Two independent experiments were performed in triplicate. The percentage inhibition was calculated relative to the control using the equation, inhibition of DPPH radical (%)=(1−(Abssample/Abscontrol))×100.

STAT-3 phosphorylation = test: Interleukin-6 induced STAT-3 phosphorylation; assay type: cell-based; conditions: IL-6 induced STAT-3 phosphorylation; 100 uM

O=C1O[C@H]([C@@H](O)CO)C(O)=C1O [Ascorbic acid, ascorbic acid]
DPPH radical scavenging activity, % ([1]; 300 μM): 37.60 ± 0.47%

O=c1c(-c2ccc(O)cc2)coc2cc(O)cc(O)c12 [Genestain]
% Inhibition (STAT-3 phosphorylation): 96.25%

O=C(NC(Cc1cc(=O)[nH]c2ccccc12)C(=O)O)c1ccc(Cl)cc1 (stereo not drawn) [Rebamipde, rebamipide]
DPPH radical scavenging activity, % ([1]; 100 μg/mL): 0.93 ± 0.83%
